Source: ChEMBL document CHEMBL3885881, “DrugMatrix”

Organism: Rattus norvegicus
Assay: DrugMatrix - Regimen: Daily Repeat
Assay type: toxicity, organism-based, Sprague-Dawley
Set-up: regimen Daily Repeat, gender Male, age 6-8 weeks
Details: in vivo, po, 1100 mg/kg, route oral GAVAGE, dose level High, vehicle .5 % CMC; for ABSOLUTE BASOPHIL / ABSOLUTE EOSINOPHIL / ABSOLUTE LYMPHOCYTE / ABSOLUTE MONOCYTE / ABSOLUTE SEGMENTED NEUTROPHIL / BASOPHIL / EOSINOPHIL / ERYTHROCYTE COUNT / HEMATOCRIT / HEMOGLOBIN / LEUKOCYTE COUNT / LYMPHOCYTE / MEAN CORPUSCULAR HEMOGLOBIN / MEAN CORPUSCULAR HEMOGLOBIN CONCENTRATION / MEAN CORPUSCULAR VOLUME / MONOCYTE / NEUTROPHIL / NUCLEATED RED BLOOD CELLS / PLATELET COUNT: tissue Blood; for ALANINE AMINOTRANSFERASE / ALBUMIN / ALKALINE PHOSPHATASE / ASPARTATE AMINOTRANSFERASE / BLOOD UREA NITROGEN / CARBON DIOXIDE / CHLORIDE / CHOLESTEROL / CREATINE PHOSPHOKINASE / CREATININE / GLUCOSE / LACTATE DEHYDROGENASE / LIPASE / PHOSPHORUS / POTASSIUM / SODIUM / TOTAL BILIRUBIN / URIC ACID: tissue Plasma

## COc1cc(NS(=O)(=O)c2ccc(N)cc2)nc(OC)n1 [SULFADIMETHOXINE]
72 h, time 3 day
  ABSOLUTE BASOPHIL: 0 CELLS/uL
  ABSOLUTE EOSINOPHIL: 176 CELLS/uL
  ABSOLUTE LYMPHOCYTE: 8678 CELLS/uL
  ABSOLUTE MONOCYTE: 307.33 CELLS/uL
  ABSOLUTE SEGMENTED NEUTROPHIL: 1105.33 CELLS/uL
  BASOPHIL: 0%
  EOSINOPHIL: 1.67%
  ERYTHROCYTE COUNT: 5.56 x10E6/uL
  HEMATOCRIT: 35.03%
  HEMOGLOBIN: 13.43 G/DL
  LEUKOCYTE COUNT: 10.27 x10E3/uL
  LYMPHOCYTE: 84.67%
  MEAN CORPUSCULAR HEMOGLOBIN: 24.13 pg
  MEAN CORPUSCULAR HEMOGLOBIN CONCENTRATION: 38.37 G/DL
  MEAN CORPUSCULAR VOLUME: 62.93 fL
  MONOCYTE: 3%
  NEUTROPHIL: 10.67%
  NUCLEATED RED BLOOD CELLS: 0 /100WBC
  PLATELET COUNT: 1279 x10E3/uL
  ALANINE AMINOTRANSFERASE: 62.67 u/L
  ALBUMIN: 4.6 G/DL
  ALKALINE PHOSPHATASE: 393.67 u/L
  ASPARTATE AMINOTRANSFERASE: 75.67 u/L
  BLOOD UREA NITROGEN: 18 mg/dL
  CARBON DIOXIDE: 27.67 mmol/L
  CHLORIDE: 102.67 MEQ/L
  CHOLESTEROL: 67.67 mg/dL
  CREATINE PHOSPHOKINASE: 189.67 u/L
  CREATININE: 0.32 mg/dL
  GLUCOSE: 153.33 mg/dL
  LACTATE DEHYDROGENASE: 129.33 u/L
  LIPASE: 9.33 u/L
  PHOSPHORUS: 12.17 mg/dL
  POTASSIUM: 6.03 MEQ/L
  SODIUM: 145.53 MEQ/L
  TOTAL BILIRUBIN: 0.17 mg/dL
  URIC ACID: 1.37 mg/dL
120 h, time 5 day
  ABSOLUTE BASOPHIL: 0 CELLS/uL
  ABSOLUTE EOSINOPHIL: 186.33 CELLS/uL
  ABSOLUTE LYMPHOCYTE: 11316.33 CELLS/uL
  ABSOLUTE MONOCYTE: 266.33 CELLS/uL
  ABSOLUTE SEGMENTED NEUTROPHIL: 1431 CELLS/uL
  BASOPHIL: 0%
  EOSINOPHIL: 1.33%
  ERYTHROCYTE COUNT: 5.62 x10E6/uL
  HEMATOCRIT: 35.53%
  HEMOGLOBIN: 13.53 G/DL
  LEUKOCYTE COUNT: 13.2 x10E3/uL
  LYMPHOCYTE: 86%
  MEAN CORPUSCULAR HEMOGLOBIN: 24.1 pg
  MEAN CORPUSCULAR HEMOGLOBIN CONCENTRATION: 38.1 G/DL
  MEAN CORPUSCULAR VOLUME: 63.17 fL
  MONOCYTE: 2%
  NEUTROPHIL: 10.67%
  NUCLEATED RED BLOOD CELLS: 0 /100WBC
  PLATELET COUNT: 1313.67 x10E3/uL
  ALANINE AMINOTRANSFERASE: 48.67 u/L
  ALBUMIN: 4.57 G/DL
  ALKALINE PHOSPHATASE: 294.67 u/L
  ASPARTATE AMINOTRANSFERASE: 97 u/L
  BLOOD UREA NITROGEN: 21.67 mg/dL
  CARBON DIOXIDE: 25.33 mmol/L
  CHLORIDE: 102.33 MEQ/L
  CHOLESTEROL: 65 mg/dL
  CREATINE PHOSPHOKINASE: 679 u/L
  CREATININE: 0.26 mg/dL
  GLUCOSE: 151.67 mg/dL
  LACTATE DEHYDROGENASE: 445 u/L
  LIPASE: 8.67 u/L
  PHOSPHORUS: 11.87 mg/dL
  POTASSIUM: 5.23 MEQ/L
  SODIUM: 144.1 MEQ/L
  TOTAL BILIRUBIN: 0.1 mg/dL
  URIC ACID: 1.4 mg/dL
